# Target: T1, catalytic domain of human Bub1 (amino acids 704-1085) (Homo sapiens, UniProt O43683)
# T1 construct: catalytic domain of human Bub1 (amino acids 704-1085); His6 (N); made in house; host or cells: Hi5 insect cells
# Test: Bub1 kinase assay (TR-FRET)
# Format: biochemical
# Settings: TR-FRET; ATP 10 μM, peptide substrate 1 μM; 60 min at 22° C.; average or median if tested more than once; read-out: Inhibition of Bub1 kinase IC50
# How it was run: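 Eleven concentrations (0.1 nM–20 μM, duplicate) fitted by 4-parameter logistic for IC50. Read-out: EDTA-stopped TR-FRET (665/620 nm) detecting anti-phosphoserine binding to biotin-peptide (1 μM). Reaction used 10 μM ATP, 60 min at 22 °C, after 15 min compound preincubation with His-tagged human Bub1 704-1085.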
# T1 sequence (O43683 704-1085): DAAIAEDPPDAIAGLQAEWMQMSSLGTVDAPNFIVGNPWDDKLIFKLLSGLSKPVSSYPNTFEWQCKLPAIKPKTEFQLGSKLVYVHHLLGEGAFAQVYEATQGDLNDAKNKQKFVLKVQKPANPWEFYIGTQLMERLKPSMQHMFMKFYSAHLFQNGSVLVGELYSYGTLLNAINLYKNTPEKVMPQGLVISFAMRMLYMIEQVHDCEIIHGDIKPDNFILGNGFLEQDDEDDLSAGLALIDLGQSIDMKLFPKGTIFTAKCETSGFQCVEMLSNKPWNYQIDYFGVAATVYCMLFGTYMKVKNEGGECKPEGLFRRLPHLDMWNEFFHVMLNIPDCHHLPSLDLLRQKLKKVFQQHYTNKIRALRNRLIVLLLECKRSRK
row,SMILES,IC50 [nM]
1,"CCN(CC)C(=O)N1CC(=O)c2c([nH]c(-c3ccnc(NC(C)=O)c3)c2Nc2ccccc2)C1 [Example 167, 2-(2-Acetamidopyridin-4-yl)-3-anilino-N,N-diethyl-4-oxo-1,4,5,7-tetrahydro-6H-pyrrolo[2,3-c]pyridine-6-carboxamide]",6
2,"CC(=O)Nc1cc(-c2[nH]c3c(c2Nc2ccccc2)C(=O)CN(C(=O)CC(F)(F)F)C3)ccn1 [Example 169, N-{4-[3-Anilino-4-oxo-6-(3,3,3-trifluoropropanoyl)-4,5,6,7-tetrahydro-1H-pyrrolo[2,3-c]pyridin-2-yl]pyridin-2-yl}acetamide]",5
3,"CC(=O)Nc1cc(-c2[nH]c3c(c2Nc2ccccc2)C(=O)CN(C(=O)CC(C)(C)C)C3)ccn1 [Example 174, N-{4-[3-Anilino-6-(3,3-dimethylbutanoyl)-4-oxo-4,5,6,7-tetrahydro-1H-pyrrolo[2,3-c]pyridin-2-yl]pyridin-2-yl}acetamide]",8
4,"CC(=O)Nc1cc(-c2[nH]c3c(c2Nc2ccccc2)C(=O)CN(C(=O)c2cncs2)C3)ccn1 [Example 175, N-{4-[3-Anilino-4-oxo-6-(1,3-thiazol-5-ylcarbonyl)-4,5,6,7-tetrahydro-1H-pyrrolo[2,3-c]pyridin-2-yl]pyridin-2-yl}acetamide]",8
5,"CC(=O)Nc1cc(-c2[nH]c3c(c2Nc2ccccc2)C(=O)CN(C(=O)c2cnco2)C3)ccn1 [Example 176, N-{4-[3-Anilino-6-(1,3-oxazol-5-ylcarbonyl)-4-oxo-4,5,6,7-tetrahydro-1H-pyrrolo[2,3-c]pyridin-2-yl]pyridin-2-yl}acetamide]",16
6,"CC(=O)Nc1cc(-c2[nH]c3c(c2Nc2ccccc2)C(=O)CN(C(=O)CC(C)(C)O)C3)ccn1 [Example 177, N-{4-[3-Anilino-6-(3-hydroxy-3-methylbutanoyl)-4-oxo-4,5,6,7-tetrahydro-1H-pyrrolo[2,3-c]pyridin-2-yl]pyridin-2-yl}acetamide]",23
7,"CC(=O)Nc1cc(-c2[nH]c3c(c2Nc2ccccc2)C(=O)CN(C(=O)CCC(C)(C)C)C3)ccn1 [Example 179, N-{4-[3-Anilino-6-(4,4-dimethylpentanoyl)-4-oxo-4,5,6,7-tetrahydro-1H-pyrrolo[2,3-c]pyridin-2-yl]pyridin-2-yl}acetamide]",63
8,"CCOC(=O)N1CC(=O)c2c([nH]c(-c3ccnc(NC(C)=O)c3)c2Nc2ccccc2)C1 [Example 183, Ethyl 2-(2-acetamidopyridin-4-yl)-3-anilino-4-oxo-1,4,5,7-tetrahydro-6H-pyrrolo[2,3-c]pyridine-6-carboxylate]",9
9,"CC(=O)Nc1cc(-c2[nH]c3c(c2Nc2ccccc2)C(=O)CN(C(=O)OCCF)C3)ccn1 [Example 184, 2-Fluoroethyl 2-(2-acetamidopyridin-4-yl)-3-anilino-4-oxo-1,4,5,7-tetrahydro-6H-pyrrolo[2,3-c]pyridine-6-carboxylate]",8
10,"CCCN(C)C(=O)N1CC(=O)c2c([nH]c(-c3ccnc(NC(C)=O)c3)c2Nc2ccccc2)C1 [Example 187, 2-(2-Acetamidopyridin-4-yl)-3-anilino-N-methyl-4-oxo-N-propyl-1,4,5,7-tetrahydro-6H-pyrrolo[2,3-c]pyridine-6-carboxamide]",3
11,CC(=O)Nc1cc(-c2[nH]c3c(c2Nc2ccccc2)C(=O)CN(C(=O)CCO)C3)ccn1 [Example 189],16
12,"CC(=O)Nc1cc(-c2[nH]c3c(c2Nc2ccccc2)C(=O)CN(C(=O)CCC(F)(F)F)C3)ccn1 [Example 190, N-{4-[3-Anilino-4-oxo-6-(4,4,4-trifluorobutanoyl)-4,5,6,7-tetrahydro-1H-pyrrolo[2,3-c]pyridin-2-yl]pyridin-2-yl}acetamide]",135
13,"CC(=O)Nc1cc(-c2[nH]c3c(c2Nc2ccccc2)C(=O)CN(C(=O)C2CCN(C)CC2)C3)ccn1 [Example 191, N-(4-{3-Anilino-6-[(1-methylpiperidin-4-yl)carbonyl]-4-oxo-4,5,6,7-tetrahydro-1H-pyrrolo[2,3-c]pyridin-2-yl}pyridin-2-yl)acetamide]",143

# Further lines, results first:
row,IC50 [nM],SMILES
1,5,"CNC(=O)N1CC(=O)c2c([nH]c(-c3ccnc(NC(C)=O)c3)c2Nc2ccccc2)C1 [Example 168, 2-(2-Acetamidopyridin-4-yl)-3-anilino-N-methyl-4-oxo-1,4,5,7-tetrahydro-6H-pyrrolo[2,3-c]pyridine-6-carboxamide]"
2,5,"CC(=O)Nc1cc(-c2[nH]c3c(c2Nc2ccccc2)C(=O)CN(C(=O)C(C)C)C3)ccn1 [Example 170, N-[4-(3-Anilino-6-isobutyryl-4-oxo-4,5,6,7-tetrahydro-1H-pyrrolo[2,3-c]pyridin-2-yl)pyridin-2-yl]acetamide]"
3,3,"CC(=O)Nc1cc(-c2[nH]c3c(c2Nc2ccccc2)C(=O)CN(S(=O)(=O)C(C)C)C3)ccn1 [Example 171, N-{4-[3-Anilino-6-(isopropylsulfonyl)-4-oxo-4,5,6,7-tetrahydro-1H-pyrrolo[2,3-c]pyridin-2-yl]pyridin-2-yl}acetamide]"
4,5,CC(=O)Nc1cc(-c2[nH]c3c(c2Nc2ccccc2)C(=O)CN(S(=O)(=O)C2CC2)C3)ccn1 [Example 172]
5,6,"CC(=O)Nc1cc(-c2[nH]c3c(c2Nc2ccccc2)C(=O)CN(S(=O)(=O)C2CCOCC2)C3)ccn1 [Example 173, N-{4-[3-Anilino-4-oxo-6-(tetrahydro-2H-pyran-4-ylsulfonyl)-4,5,6,7-tetrahydro-1H-pyrrolo[2,3-c]pyridin-2-yl]pyridin-2-yl}acetamide]"
6,5,"CCC(=O)N1CC(=O)c2c([nH]c(-c3ccnc(NC(C)=O)c3)c2Nc2ccccc2)C1 [Example 180, N-[4-(3-Anilino-4-oxo-6-propionyl-4,5,6,7-tetrahydro-1H-pyrrolo[2,3-c]pyridin-2-yl)pyridin-2-yl]acetamide]"
7,5,"CC(=O)Nc1cc(-c2[nH]c3c(c2Nc2ccccc2)C(=O)CN(C(=O)C(C)(C)C)C3)ccn1 [Example 181, N-{4-[3-Anilino-6-(2,2-dimethylpropanoyl)-4-oxo-4,5,6,7-tetrahydro-1H-pyrrolo[2,3-c]pyridin-2-yl]pyridin-2-yl}acetamide]"
8,4,"CC(=O)Nc1cc(-c2[nH]c3c(c2Nc2ccccc2)C(=O)CN(S(=O)(=O)CCC(F)(F)F)C3)ccn1 [Example 182, N-(4-{3-Anilino-4-oxo-6-[(3,3,3-trifluoropropyl)sulfonyl]-4,5,6,7-tetrahydro-1H-pyrrolo[2,3-c]pyridin-2-yl}pyridin-2-yl)acetamide]"
9,14,"CC(=O)Nc1cc(-c2[nH]c3c(c2Nc2ccccc2)C(=O)CN(C(=O)OC(C)C)C3)ccn1 [Example 185, Isopropyl 2-(2-acetamidopyridin-4-yl)-3-anilino-4-oxo-1,4,5,7-tetrahydro-6H-pyrrolo[2,3-c]pyridine-6-carboxylate]"
10,3,"CC(=O)Nc1cc(-c2[nH]c3c(c2Nc2ccccc2)C(=O)CN(C(=O)N(C)C(C)C)C3)ccn1 [Example 186, 2-(2-Acetamidopyridin-4-yl)-3-anilino-N-isopropyl-N-methyl-4-oxo-1,4,5,7-tetrahydro-6H-pyrrolo[2,3-c]pyridine-6-carboxamide]"
11,4,"CC(=O)Nc1cc(-c2[nH]c3c(c2Nc2ccccc2)C(=O)CN(S(=O)(=O)CCO)C3)ccn1 [Example 188, N-(4-{3-Anilino-6-[(2-hydroxyethyl)sulfonyl]-4-oxo-4,5,6,7-tetrahydro-1H-pyrrolo[2,3-c]pyridin-2-yl}pyridin-2-yl)acetamide]"

# Reference: US20200216439A1, “HETERO-1,5,6,7-TETRAHYDRO-4H-INDOL-4-ONES” (BAYER PHARMA AKTIENGESELLSCHAFT, priority 2015, published 2020)
